From patent US20220370636A1, “NICOTINAMIDE ADENINE DINUCLEOTIDE ACTIVATOR AND USE THEREOF” (University of South Florida, priority 2021, published 2022)

Legend:
[1] = tested on: C57BL6 mice tibialis anterior muscle; assay: BaCl2 induced tibialis anterior muscle injury in mice; format: in vivo
Protocol: Saline or 50 μl of 1% BaCl2 was injected in belly region of the muscle to induce inflammation. Muscle damage was assessed by H&E staining at day 7. The percentage of fibers recovered in higher in P7C3 treated group compared with saline treated group (FIG. 1B). The centrally placed nuclei were higher in P7C3 treated group with 3 or higher number of nuclei (FIG. 1C).
P7C3 administration (1 wk, 5 mg/kg bodyweight/day, i.p.) rescued tibialis anterior muscle injury induced by BaCl2 in mice. Administration of P7C3 increased frequency of myofiber number and fusion index as noted by increased centrally-nucleated fibers (FIGS. 1A-1C). Overall, these show the use P7C3, and the efficacy of P7C3 as a drug for muscle repair.

db/db mice [2] = assay: Skeletal muscle histology, TEM, SDH staining and mtDNA copy number in db/db mice; format: in vivo
Protocol: Haematoxylin and eosin staining. The tibialis anterior (TA) muscle was dissected from the mice, and embedded in optimal cutting temperature (OCT), frozen in isopentane chilled in liquid nitrogen and stored at […]. […] Images were obtained at ×10 and ×20 magnifications with the Olympus IX73 inverted microscope and were quantified using CellSens Standard software (Olympus Soft Imaging Solution, USA).
Transmission electron microscopy. The EDL muscles were fixed with 2.5% glutaraldehyde in 0.1 M sodium phosphate buffer for 2 h at RT, and overnight at 4° C., followed by washing in buffer and fixation with 1% osmium tetroxide in buffer for 2 h at 4° C. After rinsing in buffer, the samples were then dehydrated in ethanol and acetone at RT and infiltrated in acetone:pure resin (Embed812) mix in vacuum with desiccant for 1 h and in pure resin for 4 h and embedded in the embedding mix. Polymerization of the embedding mix was carried out overnight at 70° C. in the embedding moulds. Semithin (1 μm) and ultrathin (70 nm) sections were cut using a Reichert Ultracut microtome machine. The sections were then stained with 2% uranyl acetate and contrasted with lead citrate as per standard protocol. Images were taken at ×15,000, ×30,000, and ×50,000 magnifications with a JOEL1400 transmission electron microscope for the analysis of myofibre diameter and the mitochondrial area.
Mitochondrial DNA (mtDNA) copy number. Total DNA was extracted from gastrocnemius (GAS) muscle using DNeasy Blood and Tissue kit (Qiagen, Md., USA) according to the manufacturer's protocol. The quantitative real-time PCR (qPCR) analysis of the mtDNA/nDNA was performed using iTaq Universal SYBR green supermix (Bio-Rad Laboratories, CA, USA). The mouse 16S was used as the mitochondrial gene and HK2 was used as the nuclear gene to obtain the mitochondrial copy number.
Succinate dehydrogenase staining. The 10 μm thick transverse cryosections of TA muscles were cut at the mid-belly region using Leica CM 1860 AgProtect cryostat machine. Briefly, the tissue sections were air-dried for 45 minutes, and incubated in 50 mM sodium succinate dibasic hexahydrate and 1.25 mM nitroblue tetrazolium in 0.1 M phosphate buffer (Sigma-Aldrich, MO, USA) for 30 min. The reaction was stopped washing in deionized water, and the sections were dehydrated in a series of graded ethanol and cleared using xylene. The sections were then mounted with DPX mountant, and the images were captured at ×20 magnification of the Olympus IX73 inverted microscope using CellSens Standard software (Olympus Soft Imaging Solution, USA) and the succinate dehydrogenase (SDH) positive myofibres were quantified with ImageJ software.

db/db mice [3] = assay: Electrocardiography in db/db mice; format: in vivo; conditions: 10 mg/kg/day i.p., 4 weeks, vs vehicle
Protocol: Electrocardiography (ECG). Mouse ECG recordings were obtained utilizing 2-3% isoflurane/oxygen anesthesia in lead II configuration. ECGs were acquired for a total duration of 15 min, with 1 min recordings obtained at 5-minute intervals. Heart rate was monitored, while ECG traces were acquired using PowerLab system operated with LabChart 7.2 software (AD Instruments, UK). Data were analyzed offline using the ECG module of LabChart 7.2 software, as reported elsewhere. The intervals (ms) of QTc, JT, and ST elevation (mV) were measured. QT interval was measured from the start of the Q peak to the point where the T wave returns to the isoelectric baseline (TP baseline), and heart rate corrected QT (QTc) interval was obtained using the formula (QTc=QT/(RR/100)^1/2).

db/db hearts = assay: Ex vivo ischemia reperfusion (Langendorff) in db/db hearts; set-up: species or system mice
Protocol: Ex vivo ischemia reperfusion protocol. Mice were injected with heparin (360 USP units, Sigma-Aldrich, MO, USA) and euthanized with Somnasol™ (pentobarbital, 50 mg/kg i.p. body weight). Hearts were then excised and mounted on to the Langendorff apparatus immediately and perfused with Krebs-Hanseleit buffer containing (in mM): 119 NaCl, 25 NaHCO3, 4 KCl, 1 MgCl2, 1.8 CaCl2), 1 MgCl2, 10 glucose and 2 Sodium pyruvate, pH 7.4, that was constantly bubbled with carbogen gas and maintained at 37° C. as described previously. Perfusion was maintained at a constant flow of ˜2.2 ml/min. Hearts were stabilized for 30 min before proceeding to the ischemic phase. Hearts that underwent P7C3 (3 μM) treatment during the Langendorff procedure were allowed to stabilize for 10 mins then a 20 min perfusion with P7C3 (3 μM) (within Krebs-Hanseleit buffer) as pre-ischemic dosing. Cardiac ischemia was induced by the pause in Krebs-Hanseleit buffer perfusion for 45 min. Reperfusion was induced with the induction of Krebs-Hanseleit buffer at a constant flow of ˜2.2 ml/min for 2 hours. […] Image J software was utilized to quantify the ischemic areas for several sections per heart, which were then averaged and divided by the total area of the heart section and multiplied by a factor of ×100(%) to determine the overall damage percentage per heart. […]

[4] = mice, 1 wk, 5 mg/kg bodyweight/day, i.p.
[5] = tibialis anterior, H&E, vs db-Veh

For `OC(CNc1ccccc1)Cn1c2ccc(Br)cc2c2cc(Br)ccc21` (stereo not shown) [P7C3, 3,6-Dibromo-a-[(phenylamino)methyl]-9H-carbazole-9-ethanol], the “percentage of fibers recovered” value ([1]; H&E staining at day 7, vs saline treated group) was “higher”, the “centrally placed nuclei (3 or higher number of nuclei)” value ([1]; day 7, vs saline treated group) was “higher” and the “frequency of myofiber number” value [1, 4] was “increased”. The “fusion index (centrally-nucleated fibers)” value [1, 4] was “increased”, the “tibialis anterior muscle injury induced by BaCl2” value [1, 4] was “rescued” and the SDH positive myofibres (db/db mice [2]; TA muscle, 4 weeks) was “significantly improved”. For the same compound, the “mitochondria morphology and function” value (db/db mice [2]; TEM, db/db) was “improved”, the “myofibre diameter of the extensor digitorum longus muscle” value (db/db mice [2]; TEM, vs db-Veh) was “increase” and the “16S expression (mtDNA)” value (db/db mice [2]; gastrocnemius, vs db-Veh) was “significantly decreased”. For the same compound, the “medium and larger sized myofibres cross-sectional areas” value (db/db mice [2]; [5]) was “increase”, the “small myofibres cross-sectional areas (0-1500 μm^2)” value (db/db mice [2]; [5]) was “significant decrease” and the JT interval (db/db mice [3]) was “significantly attenuated”. The QTc interval (db/db mice [3]) was “significantly attenuated”, the ST elevation (db/db mice [3]) was “significantly attenuated” and the “cardiac effluent Troponin I levels” value (db/db hearts; 30 and 120 minutes post-ischemia) was “significant decrease”. For the same compound, the infarct size (db/db hearts; P7C3 3 μM prior to and following (2 hour reperfusion) ischemia) was 18%.
